Data as given in patent US20220226480A1, “LIPID CONJUGATE PREPARED FROM SCAFFOLD MOIETY” (Integrated Nanotherapeutics Inc., priority 2019, published 2022).

Key:
[1] = Particle size and polydispersity of LNP containing pro-drug (dynamic light scattering); assay type: physicochemical; design: Size of LNP: unit not given here; settings: for Particle Diameter (nm) / Polydispersity index (PDI): LNP containing 10 mol % conjugate, primary PC-lipid DMPC
Protocol: (§1) LNPs were prepared by dissolving 1,2-Distearoyl-sn-glycero-3-phosphocholine (DSPC) or 1,2-dimyristoyl-sn-glycero-3-phosphocholine (DMPC), cholesterol and 1,2-Distearoyl-sn-glycero-3-phosphoethanolamine-Poly(ethylene glycol) (PEG-DSPE) in ethanol. DSPC, DMPC and PEG-DSPE were purchased from Avanti Polar Lipids (Alabaster, Ala.), and cholesterol was obtained from Sigma (St Louis, Mo.).
(§2) Drug-lipid-conjugates INT-D034, INT-D035, INT-D045, INT-D046, INT-D047, INT-D048, INT-D049, INT-D050, INT-D051, INT-D053, INT-D060, INT-D061, INT-D062, INT-D063, INT-D083, INT-D085, INT-D086, INT-D088 and INT-D089 (see FIG. 3 and Example 7 for structures) were dissolved in isopropanol or THF. LNP were prepared by rapidly mixing DSPC or DMPC, cholesterol, drug-lipid conjugate, and PEG-DSPE (in molar ratio of 49/40/10/1) with phosphate-buffered saline (PBS) using a cross-junction mixer. Formulations were dialyzed against PBS to remove residual ethanol. In formulation$ with more than 10 mol % drug-lipid conjugates, the amount of phospholipid or cholesterol was reduced accordingly.
(§3) The physiochemical properties of the LNPs prepared as described above were subsequently characterized. Particle size was determined by dynamic light scattering using a Malvern Zetasizer Nano ZS (Malvern, UK) following buffer exchange into phosphate-buffered saline. Number-weighted size and distribution date was used. Lipid concentrations were determined by measuring total cholesterol using the Cholesterol E enzymatic assay kit from Wako Chemicals USA (Richmond, Va.). The morphology of LNP formulations containing LD-DEX was analyzed by cryogenic-transmission electron microscopy (cryoTEM).

[2] = Encapsulation efficiency / incorporation of pro-drug in LNP; assay type: physicochemical; settings: for Encapsulation Efficiency (%): LNP containing 10 mol % conjugate; for % Entrapment: LNP formulations containing pro-drugs (10 mol %, FIG. 6A)
Protocol: as §1, §2, §3

[3] = LNP formulations containing pro-drugs (10 mol %, FIG. 6A)
[4] = LNP, pro-drug concentration 50 %
[5] = LNP, pro-drug concentration 60 %
[6] = LNP, pro-drug concentration 80 %
[7] = LNP, pro-drug concentration 98 %
[8] = LNP, pro-drug concentration 99 %
[9] = LNP, pro-drug concentration 10 %
[10] = LNP, pro-drug concentration 20 %

Compound	Particle Diameter (nm) [1]	Polydispersity index (PDI) [1]	PdI [1, 3]	Size of LNP [1, 3]	Encapsulation Efficiency (%) ([2]; primary PC-lipid DMPC)	% Entrapment [2]	PdI [1, 5]	Size (nm) [1, 5]	PdI [1, 6]	Size (nm) [1, 6]	PdI [1, 7]	Size (nm) [1, 7]	PdI [1, 8]	Size (nm) [1, 8]	PdI [1, 9]	Size (nm) [1, 9]	PdI [1, 10]	Size (nm) [1, 10]	also measured
CCCCCCCCCCCC(=O)O[C@@H](C/C=C\CCCCCCCCOC(=O)CCC(=O)OCC(=O)[C@@]1(O)[C@H](C)C[C@H]2[C@@H]3CCC4=CC(=O)C=C[C@]4(C)[C@@]3(F)[C@@H](O)C[C@@]21C)CCCCCC [INT-D046, (R,Z)-12-(dodecanoyloxy)octadec-9-en-1-yl (2-((8S,9R,10S,11S,13S,14S,16R,17R)-9-fluoro-11,17-dihydroxy-10,13,16-trimethyl-3-oxo-6,7,8,9,10,11,12,13,14,15,16,17-dodecahydro-3H-cyclopenta[a]phenanthren-17-yl)-2-oxoethyl) succinate]	69 nm	0.04	0.08	64	93%	100%													
CC/C=C\C/C=C\C/C=C\CCCCCCCC(=O)O[C@@H](C/C=C\CCCCCCCCOC(=O)CCC(=O)OCC(=O)[C@@]1(O)[C@H](C)C[C@H]2[C@@H]3CCC4=CC(=O)C=C[C@]4(C)[C@@]3(F)[C@@H](O)C[C@@]21C)CCCCCC [INT-D049, 2-((8S,9R,10S,11S,13S,14S,16R,17R)-9-fluoro-11,17-dihydroxy-10,13,16-trimethyl-3-oxo-6,7,8,9,10,11,12,13,14,15,16,17-dodecahydro-3H-cyclopenta[a]phenanthren-17-yl)-2-oxoethyl ((R,Z)-12-(linolenoyloxy)octadec-9-en-1-yl) succinate]	68 nm	0.05	0.11	65	94%	100%	0.02	61 nm	0.03	92 nm	0.05	69 nm	0.03	103 nm					PdI [1, 4]: 0.05; Size (nm) [1, 4]: 44 nm; Encapsulation Efficiency (%) ([2]; primary PC-lipid DSPC): 100%
CCCCCCCCCCCCCCCCCC(=O)O[C@@H](C/C=C\CCCCCCCCOC(=O)CCC(=O)OCC(=O)[C@@]1(O)[C@H](C)C[C@H]2[C@@H]3CCC4=CC(=O)C=C[C@]4(C)[C@@]3(F)[C@@H](O)C[C@@]21C)CCCCCC [INT-D050, 2-((8S,9R,10S,11S,13S,14S,16R,17R)-9-fluoro-11,17-dihydroxy-10,13,16-trimethyl-3-oxo-6,7,8,9,10,11,12,13,14,15,16,17-dodecahydro-3H-cyclopenta[a]phenanthren-17-yl)-2-oxoethyl ((R,Z)-12-(stearoyloxy)octadec-9-en-1-yl) succinate]	61 nm	0.04	0.05	60	97%	90%			0.01	101 nm	0.02	61 nm	0.01	105 nm					
CCCCC/C=C\C/C=C\C/C=C\C/C=C\CCCC(=O)O[C@@H](C/C=C\CCCCCCCCOC(=O)CCC(=O)OCC(=O)[C@@]1(O)[C@H](C)C[C@H]2[C@@H]3CCC4=CC(=O)C=C[C@]4(C)[C@@]3(F)[C@@H](O)C[C@@]21C)CCCCCC [INT-D051, 2-((8S,9R,10S,11S,13S,14S,16R,17R)-9-fluoro-11,17-dihydroxy-10,13,16-trimethyl-3-oxo-6,7,8,9,10,11,12,13,14,15,16,17-dodecahydro-3H-cyclopenta[a]phenanthren-17-yl)-2-oxoethyl ((R,Z)-12-(arachidonoyloxy)octadec-9-en-1-yl) succinate]	65 nm	0.03	0.04	61	84%	100%			0.02	87 nm	0.04	56 nm	0.01	93 nm					Encapsulation Efficiency (%) ([2]; primary PC-lipid DSPC): 100%
CCCCCC[C@H](C/C=C\CCCCCCCCOC(=O)c1ccccc1OC(C)=O)OC(=O)CCCCC [INT-D060, (R,Z)-12-Hexanoyloxyoctadec-9-en-1-yl 2-acetoxybenzoate]							0.216	71 nm	0.042	67 nm			0.034	98 nm	0.06	46 nm	0.116	42 nm	
CCCCC/C=C\C/C=C\CCCCCCCC(=O)O[C@@H](C/C=C\CCCCCCCCOC(=O)c1ccccc1OC(C)=O)CCCCCC [INT-D061]							0.186	72 nm	0.089	82 nm			0.045	123 nm	0.061	44 nm	0.065	39 nm	
CCCCCC[C@H](C/C=C\CCCCCCCCOC(=O)CC/C(C)=C/Cc1c(O)c2c(c(C)c1OC)COC2=O)OC(=O)CCCCC [INT-D062, (12R)-Hexanoyloxyoleyl (E) 6-(4-hydroxy-6-methoxy-7-methyl-3-oxo-1,3-dihydroisobenzofuran-5-yl)-4-methylhex-4-enoate]							0.212	70 nm	0.021	68 nm			0.019	93 nm	0.085	42 nm	0.072	39 nm	
CCCCC/C=C\C/C=C\CCCCCCCC(=O)O[C@@H](C/C=C\CCCCCCCCOC(=O)CC/C(C)=C/Cc1c(O)c2c(c(C)c1OC)COC2=O)CCCCCC [INT-D063, (12R)-Linoleoyloxyoleyl (E)-6-(4-hydroxy-6-methoxy-7-methyl-3-oxo-1,3-dihydroisobenzofuran-5-yl)-4-methylhex-4-enoate]							0.149	57 nm	0.031	91 nm			0.028	119 nm	0.069	41 nm	0.056	41 nm	
CCCCCCCCC(OC(=O)CCCCC)C(CCCCCCCC(=O)OCC(=O)[C@@]1(O)[C@H](C)C[C@H]2[C@@H]3CCC4=CC(=O)C=C[C@]4(C)[C@@]3(F)[C@@H](O)C[C@@]21C)OC(=O)CCCCC (stereo partly drawn) [INT-D085, 1-(2-((8S,9R,10S,11S,13,14S,16R,17R)-9-Fluoro-11,17-dihydroxy-10,13,16-trimethyl-3-oxo-6,7,8,9,10,11,12,13,14,15,16,17-dodecahydro-3H-cyclopenta[a]phenanthren-17-yl)-2-oxoethoxy)-1-oxooctadecane-9,10-diyl dihexanoate]			0.06	42		100%	0.059	56 nm	0.034	124 nm			0.006	135 nm	0.064	42 nm	0.075	39 nm	
CCCCC/C=C\C/C=C\CCCCCCCC(=O)O[C@@H](C/C=C\CCCCCCCC(=O)OCC(=O)[C@@]1(O)[C@H](C)C[C@H]2[C@@H]3CCC4=CC(=O)C=C[C@]4(C)[C@@]3(F)[C@@H](O)C[C@@]21C)CCCCCC [INT-D089, 2-((8S,9R,10S,11S,13S,14S,16R,17R)-9-Fluoro-11,17-dihydroxy-10,13,16-trimethyl-3-oxo-6,7,8,9,10,11,12,13,14,15,16,17-dodecahydro-3H-cyclopenta[a]phenanthren-17-yl)-2-oxoethyl (R,Z)-12-linoleoyloxyoleate]			0.07	41		100%													
